Test results reported in publication PMC5053523, “In Vitro Antibacterial Activity of Rhodanine Derivatives against Pathogenic Clinical Isolates” (PLoS ONE, 2016).
In brackets after ≈: the same amount, converted by molar mass. Like-named read-outs stand apart in the source and are kept apart here.

What was measured:
Acinetobacter baumannii [1] = experiment: MIC with/without sub-MIC colistin, Acinetobacter baumannii; assay type: cell-based; conditions: for MIC: read-out: MIC
Description: (§1) The MIC of the rhodanines and control antibiotics, in the presence of a sub-inhibitory concentration of colistin or polymixin B nonapeptide (PMBN), against Gram-negative bacteria was evaluated as described before. The antibacterial activity of the rhodanines was further investigated against E. coli SM1411Δ acrAB, a strain that is deficient in the multidrug-resistant AcrAB efflux pump, as described before.

Escherichia coli O157:H7 [2] = experiment: MIC with/without sub-MIC colistin, Escherichia coli O157:H7; assay type: cell-based
Description: as §1

Salmonella Typhimurium [3] = experiment: MIC with/without sub-MIC colistin, Salmonella Typhimurium; assay type: cell-based; conditions: Salmonella Typhimurium ATCC 700720; for MIC: read-out: MIC
Description: as §1

Klebsiella pneumoniae [4] = experiment: MIC with/without sub-MIC colistin, Klebsiella pneumoniae; assay type: cell-based
Description: as §1

Pseudomonas aeruginosa [5] = experiment: MIC with/without sub-MIC colistin, Pseudomonas aeruginosa; assay type: cell-based; conditions: for MIC: Pseudomonas aeruginosa ATCC 921, read-out: MIC
Description: as §1

MRSA USA300 = experiment: MIC against MRSA USA300 with and without 4% human serum albumin; assay type: cell-based, Staphylococcus aureus; conditions: for MIC: Staphylococcus aureus, read-out: MIC against MRSA USA300
Description: The minimum inhibitory concentration (MIC) and the minimum bactericidal concentration (MBC) of rhodanine compounds 1 to 7 were determined against various Gram-positive and Gram-negative pathogens (S1 Table) following the guidelines of the Clinical and Laboratory Standards Institute (CLSI)[4]. The broth microdilution technique was used, followed by subculturing on agar plates that were rhodanine—free. […] The MICs reported represent the lowest concentration of each compound necessary to inhibit bacterial growth and the MBCs represent the lowest concentration required to reduce the initial bacterial inoculum by ≥ 99.9%.
The antimicrobial activity of rhodanine compounds in the presence of 4% human serum albumin (HSA) was tested against MRSA USA300. The MICs of rhodanine compounds and control antibiotics (vancomycin and daptomycin) were tested as described in the methods above using tryptic soy broth spiked with 4% HSA. We also synthesized and tested three more compounds, ethyl ester and amide of rhodanine 2 (Rh 8 and Rh 10, respectively) and ethyl ester of rhodanine 3 (Rh 9) to determine the influence of a carboxyl group modification toward anti-MRSA activity and human serum albumin (HSA) binding.

Acinetobacter baumannii [6] = experiment: MIC with/without PMBN, Acinetobacter baumannii; assay type: cell-based; conditions: for MIC: read-out: MIC
Description: as §1

Escherichia coli O157:H7 [7] = experiment: MIC with/without PMBN, Escherichia coli O157:H7; assay type: cell-based
Description: as §1

Klebsiella pneumoniae [8] = experiment: MIC with/without PMBN, Klebsiella pneumoniae; assay type: cell-based
Description: as §1

Pseudomonas aeruginosa [9] = experiment: MIC with/without PMBN, Pseudomonas aeruginosa; assay type: cell-based; conditions: for MIC: Pseudomonas aeruginosa ATCC 9721, read-out: MIC
Description: as §1

Salmonella Typhimurium [10] = experiment: MIC with/without PMBN, Salmonella Typhimurium; assay type: cell-based; conditions: Salmonella Typhimurium ATCC 700720, read-out: MIC
Description: as §1

Escherichia coli Δ acrAB = experiment: MIC against E. coli 1411 and AcrAB efflux pump deficient E. coli SM1411Δ acrAB; assay type: cell-based
Description: as §1

[11] = Acinetobacter baumannii ATCC BAA747
[12] = Acinetobacter baumannii ATCC BAA19606
[13] = Escherichia coli O157:H7 ATCC 35150
[14] = Escherichia coli O157:H7 ATCC 700728
[15] = Klebsiella pneumoniae ATCC BAA 2146

Molecule: colistin [reference compound]
- MIC of colistin (Acinetobacter baumannii [1]; [11]): 0.25 µg/mL
- MIC of colistin (Acinetobacter baumannii [1]; [12]): 0.5 µg/mL
- MIC of colistin (Escherichia coli O157:H7 [2]; [13]): 0.125 µg/mL
- MIC of colistin (Escherichia coli O157:H7 [2]; [14]): 0.0625 µg/mL
- MIC of colistin (Salmonella Typhimurium [3]): 1 µg/mL
- MIC of colistin (Klebsiella pneumoniae [4]; [15]): 0.5 µg/mL
- MIC of colistin (Pseudomonas aeruginosa [5]; Pseudomonas aeruginosa, ATCC921): 1 µg/mL

Molecule: NC(=O)[C@H](Cc1ccccc1)N1C(=O)/C(=C/c2cccc(-c3ccc(Cl)c(Cl)c3)c2)SC1=S [Rh 10, (L,Z)-2-(5-((3',4'-dichloro-[1,1'-biphenyl]-3-yl)methylene)-4-oxo-2-thioxothiazolidin-3-yl)-3-phenylpropanamide]
- antibacterial activity in the presence or absence of HSA (MRSA USA300; MRSA USA300): not active
- MIC (MRSA USA300; 24 h, Media TSB + 4% HSA): > 64 µM
- MIC (MRSA USA300; Media TSB): > 64 µM

Molecule: polymixin B nonapeptide [PMBN, reference compound]
- MIC of PMBN (Acinetobacter baumannii [6]; [11]): >128 µg/mL
- MIC of PMBN (Acinetobacter baumannii [6]; [12]): >128 µg/mL
- MIC of PMBN (Escherichia coli O157:H7 [7]; [13]): >128 µg/mL
- MIC of PMBN (Escherichia coli O157:H7 [7]; [14]): >128 µg/mL
- MIC of PMBN (Klebsiella pneumoniae [8]; Klebsiella pneumoniae ATCC BAA 1706): >128 µg/mL
- MIC of PMBN (Klebsiella pneumoniae [8]; [15]): >128 µg/mL
- MIC of PMBN (Pseudomonas aeruginosa [9]; Pseudomonas aeruginosa, ATCC9721): >128 µg/mL

Molecule: CC[C@H]1OC(=O)[C@H](C)[C@@H](O[C@H]2C[C@@](C)(OC)[C@@H](O)[C@H](C)O2)[C@H](C)[C@@H](O[C@@H]2O[C@H](C)C[C@H](N(C)C)[C@H]2O)[C@](C)(O)C[C@@H](C)C(=O)[C@H](C)[C@@H](O)[C@]1(C)O [Erythromycin, erythromycin, reference compound]
- MIC (Acinetobacter baumannii [1]; ATCCBAA747, Acinetobacter baumannii ATCC BAA747, colistin (-)): 4 µM (≈ 2.94 µg/mL)
- MIC (Acinetobacter baumannii [1]; ATCCBAA19606, Acinetobacter baumannii ATCC BAA19606, colistin (-)): 16 µM (≈ 11.7 µg/mL)
- MIC (Acinetobacter baumannii [1]; Acinetobacter baumannii ATCC BAA747, colistin (+) […]): 1 µM (≈ 0.734 µg/mL)
- MIC (Acinetobacter baumannii [1]; Acinetobacter baumannii ATCC BAA19606, colistin (+) […]): 2 µM (≈ 1.47 µg/mL)
- MIC (Escherichia coli O157:H7 [2]; Escherichia coli O157:H7 ATCC 35150, colistin (+) […], read-out: MIC): ≤0.5 µM
- MIC (Escherichia coli O157:H7 [2]; Escherichia coli O157:H7 ATCC 700728, colistin (+) […], read-out: MIC): ≤0.5 µM
- MIC (Escherichia coli O157:H7 [2]; Escherichia coli, ATCC35150): 32 µM (≈ 23.5 µg/mL)
- MIC (Escherichia coli O157:H7 [2]; Escherichia coli, ATCC700728): 32 µM (≈ 23.5 µg/mL)
- MIC (Salmonella Typhimurium [3]; colistin (+) […]): 16 µM (≈ 11.7 µg/mL)
- MIC (Salmonella Typhimurium [3]; Salmonella enterica, ATCC 700720 / TYPHIMURIUM, colistin (-)): 64 µM (≈ 47 µg/mL)
- MIC (Klebsiella pneumoniae [4]; Klebsiella pneumoniae ATCC BAA 2146, colistin (+) […]): >64 µM
- MIC (Klebsiella pneumoniae [4]; Klebsiella pneumoniae, BAA2146): > 128 µM
- MIC (Pseudomonas aeruginosa [5]; ATCC921, colistin (-)): 64 µM (≈ 47 µg/mL)
- MIC (Pseudomonas aeruginosa [5]; colistin (+) […]): 16 µM (≈ 11.7 µg/mL)
- MIC (Acinetobacter baumannii [6]; ATCCBAA747, Acinetobacter baumannii ATCC BAA747, PMBN (-)): 4 µM (≈ 2.94 µg/mL)
- MIC (Acinetobacter baumannii [6]; ATCCBAA19606, Acinetobacter baumannii ATCC BAA19606, PMBN (-)): 16 µM (≈ 11.7 µg/mL)
- MIC (Acinetobacter baumannii [6]; Acinetobacter baumannii ATCC BAA747, PMBN (+) 4 μg/mL): ≤0.5 µM
- MIC (Acinetobacter baumannii [6]; Acinetobacter baumannii ATCC BAA19606, PMBN (+) 4 μg/mL): 2 µM (≈ 1.47 µg/mL)
- MIC (Escherichia coli O157:H7 [7]; Escherichia coli O157:H7 ATCC 35150, PMBN (+) 4 μg/mL, read-out: MIC): 4 µM (≈ 2.94 µg/mL)
- MIC (Escherichia coli O157:H7 [7]; Escherichia coli O157:H7 ATCC 700728, PMBN (+) 4 μg/mL, read-out: MIC): 2 µM (≈ 1.47 µg/mL)
- MIC (Escherichia coli O157:H7 [7]; Escherichia coli, ATCC35150): 128 µM (≈ 93.9 µg/mL)
- MIC (Escherichia coli O157:H7 [7]; Escherichia coli, ATCC700728): 32 µM (≈ 23.5 µg/mL)
- MIC (Salmonella Typhimurium [10]; PMBN (+) 4 μg/mL): 4 µM (≈ 2.94 µg/mL)
- MIC (Salmonella Typhimurium [10]; Salmonella enterica, ATCC 700720 / TYPHIMURIUM, PMBN (-)): 64 µM (≈ 47 µg/mL)
- MIC (Klebsiella pneumoniae [8]; Klebsiella pneumoniae ATCC BAA 1706, PMBN (+) 4 μg/mL): 64 µM (≈ 47 µg/mL)
- MIC (Klebsiella pneumoniae [8]; Klebsiella pneumoniae ATCC BAA 2146, PMBN (+) 4 μg/mL): >64 µM
- MIC (Klebsiella pneumoniae [8]; Klebsiella pneumoniae, BAA1706): > 128 µM
- MIC (Klebsiella pneumoniae [8]; Klebsiella pneumoniae, BAA2146): > 128 µM
- MIC (Pseudomonas aeruginosa [9]; ATCC9721, PMBN (-)): 64 µM (≈ 47 µg/mL)
- MIC (Pseudomonas aeruginosa [9]; PMBN (+) 4 μg/mL): 1 µM (≈ 0.734 µg/mL)
- MIC (Escherichia coli Δ acrAB; E.coli 1411): > 64 µM
- MIC (Escherichia coli Δ acrAB; E.coli 1411 SM (Δ acrAB, AcrAB efflux pump deficient)): 2 µM (≈ 1.47 µg/mL)
